{"source": "ChEMBL document CHEMBL6134796", "about": "“Development and Evaluation of Indole-Based Phospholipase D Inhibitors for Lung Cancer Immunotherapy” (J Med Chem, 2025)", "key": {"[1]": {"test_system": "HCT-116", "assay": "Residual PLD activity in human HCT-116 cells at 10 uM measured after 1 hr by amplex red phospholipase D assay as % of control"}, "[2]": {"test_system": "A549", "assay": "Cytotoxicity against human A549 cells assessed as inhibition of cell growth incubated for 48 hrs by WST-1 assay", "assay_type": "functional, cell-based", "conditions": "A549, 48 h"}, "[3]": {"assay": "Inhibition of PLD in human A549 cells measured after 1 hr by amplex red phospholipase D assay", "assay_type": "cell-based"}, "[4]": {"test_system": "HCT-116", "assay": "Cytotoxicity against human HCT-116 cells assessed as inhibition of cell growth incubated for 48 hrs by WST-1 assay", "assay_type": "functional, cell-based", "conditions": "HCT-116, 48 h"}}, "note": "pIC50: −log10 of the molar value.", "data": [{"smiles": "O=C(Nc1cc(F)cc(F)c1)c1cc2cc(F)ccc2[nH]1", "values": [{"measurement": "level, % of control", "setting": "[1]", "result": 51.1, "unit": "%"}]}, {"smiles": "O=C(Nc1cccc(C(F)(F)F)c1)c1cc2cc(F)ccc2[nH]1", "values": [{"measurement": "level, % of control", "setting": "[1]", "result": 47.6, "unit": "%"}]}, {"smiles": "O=C(CCCc1c[nH]c2ccccc12)Nc1cc(C(F)(F)F)cc(C(F)(F)F)c1", "values": [{"measurement": "level, % of control", "setting": "[1]", "result": 55.5, "unit": "%"}]}, {"smiles": "O=C(CCc1c[nH]c2ccccc12)Nc1cccc(F)c1", "values": [{"measurement": "level, % of control", "setting": "[1]", "result": 50.6, "unit": "%"}]}, {"smiles": "O=C(Cc1c[nH]c2ccccc12)Nc1cc(C(F)(F)F)cc(C(F)(F)F)c1", "values": [{"measurement": "level, % of control", "setting": "[1]", "result": 53, "unit": "%"}]}, {"smiles": "O=C(Oc1cc(C(F)(F)F)cc(C(F)(F)F)c1)c1cc2cc(F)ccc2[nH]1", "values": [{"measurement": "pIC50", "setting": "[2]", "result": 4.30}, {"measurement": "pIC50", "setting": "[3]", "result": 5.51}, {"measurement": "pIC50", "setting": "[4]", "result": "< 4.30"}, {"measurement": "level, % of control", "setting": "[1]", "result": 33.4, "unit": "%"}]}, {"smiles": "O=C(Nc1ccc(O)c(O)c1)c1c[nH]c2ccccc12", "values": [{"measurement": "level, % of control", "setting": "[1]", "result": 51.1, "unit": "%"}]}, {"smiles": "O=C(Nc1ccc(F)cc1)c1cc2cc(F)ccc2[nH]1", "values": [{"measurement": "level, % of control", "setting": "[1]", "result": 53.2, "unit": "%"}]}, {"smiles": "C[C@@H](CN1CCC(n2c(=O)[nH]c3cc(Cl)ccc32)CC1)NC(=O)c1ccc2ccccc2c1", "values": [{"measurement": "level, % of control", "setting": "[1]", "result": 30.4, "unit": "%"}]}, {"smiles": "O=C(Nc1ccc(O)c(O)c1)c1cc2cc(F)ccc2[nH]1", "values": [{"measurement": "pIC50", "setting": "[2]", "result": "< 3.70"}, {"measurement": "pIC50", "setting": "[3]", "result": 5.37}, {"measurement": "pIC50", "setting": "[4]", "result": "< 4.30"}]}, {"smiles": "COc1ccc(NC(=O)c2cc3cc(F)ccc3[nH]2)cc1OC", "values": [{"measurement": "level, % of control", "setting": "[1]", "result": 52.2, "unit": "%"}]}, {"smiles": "O=C(Nc1cc(C(F)(F)F)cc(C(F)(F)F)c1)c1cc2cc(C(F)(F)F)ccc2[nH]1", "values": [{"measurement": "level, % of control", "setting": "[1]", "result": 45.8, "unit": "%"}]}, {"smiles": "O=C(Cc1c[nH]c2ccccc12)Nc1ccc(O)c(O)c1", "values": [{"measurement": "level, % of control", "setting": "[1]", "result": 54.4, "unit": "%"}]}, {"smiles": "COc1ccc(CNC(=O)c2cc3cc(F)ccc3[nH]2)cc1OC", "values": [{"measurement": "level, % of control", "setting": "[1]", "result": 48, "unit": "%"}]}]}
